Data taken from patent US6054435A, “6-O-substituted macrolides having antibacterial activity” (priority 1999, dated 2000).
Values after ≈ are worked out from the molar mass of the structure shown.

How the values were obtained:
Assay in all cases: in vitro antibacterial activity (MIC), agar dilution
Format in all cases: cell-based
[1] = tested on: Streptococcus Pneumonia ATCC6303; conditions: organism code XX; BHI agar, 35-37° C., 20 to 24 hours; unit assumed
Method in brief: (§1)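 Endpoint: lowest concentration with no growth, slight haze or sparsely isolated colonies at the inoculum spot, judged against a compound-free BHI control. Strains were replicator-inoculated at 1:100 (1:10 for Streptococcus and other slow growers).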

[2] = tested on: Streptococcus pyogenes EES61; conditions: organism code LL; BHI agar, 35-37° C., 20 to 24 hours; unit assumed
Method in brief: as §1

[3] = tested on: Streptococcus Pneumonia GYR 1171; conditions: organism code YY; BHI agar, 35-37° C., 20 to 24 hours; unit assumed
Method in brief: as §1

[4] = tested on: Staphylococcus aureus CMX 553; conditions: organism code FF; BHI agar, 35-37° C., 20 to 24 hours; unit assumed
Method in brief: as §1

[5] = tested on: Nocardia Asteroides ATCC9970; conditions: organism code VV; BHI agar, 35-37° C., 20 to 24 hours; unit assumed
Method in brief: as §1

[6] = tested on: Escherichia coli SS; conditions: organism code RR; BHI agar, 35-37° C., 20 to 24 hours; unit assumed
Method in brief: as §1

[7] = tested on: Mycobacterium smegmatis ATCC 114; conditions: organism code UU; BHI agar, 35-37° C., 20 to 24 hours; unit assumed
Method in brief: as §1

[8] = tested on: Streptococcus pyogenes 930; conditions: organism code MM; BHI agar, 35-37° C., 20 to 24 hours; unit assumed
Method in brief: as §1

[9] = tested on: Escherichia coli JUHL; conditions: organism code QQ; BHI agar, 35-37° C., 20 to 24 hours; unit assumed
Method in brief: as §1

[10] = tested on: Micrococcus luteus ATCC 4698; conditions: organism code PP; BHI agar, 35-37° C., 20 to 24 hours; unit assumed
Method in brief: (§2)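 Antibacterial MIC determined by agar dilution in BHI agar with twelve successive concentrations; controls comprised compound-free plates and a same-class reference antibiotic. MIC: lowest concentration giving no growth, slight haze or sparsely isolated colonies.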

[11] = tested on: Micrococcus luteus ATCC 9341; conditions: organism code OO; BHI agar, 35-37° C., 20 to 24 hours; unit assumed
Method in brief: as §2

[12] = tested on: Staphylococcus aureus A5177; conditions: organism code BB; BHI agar, 35-37° C., 20 to 24 hours; unit assumed
Method in brief: as §1

[13] = tested on: Streptococcus Pneumonia 5979; conditions: organism code ZZ; BHI agar, 35-37° C., 20 to 24 hours; unit assumed
Method in brief: as §1

[14] = tested on: Staphylococcus aureus 1775; conditions: organism code GG; BHI agar, 35-37° C., 20 to 24 hours; unit assumed
Method in brief: as §1

[15] = tested on: Streptococcus agalactiae CMX 508; conditions: organism code KK; BHI agar, 35-37° C., 20 to 24 hours; unit assumed
Method in brief: as §1

[16] = tested on: Staphylococcus aureus ATCC 6538P; conditions: organism code AA; BHI agar, 35-37° C., 20 to 24 hours; unit assumed
Method in brief: as §1

[17] = tested on: Haemophilis Influenzae DILL AMP R; conditions: organism code WW; BHI agar, 35-37° C., 20 to 24 hours; unit assumed
Method in brief: as §1

[18] = tested on: Staphylococcus aureus NCTC10649M; conditions: organism code EE; BHI agar, 35-37° C., 20 to 24 hours; unit assumed
Method in brief: as §1

[19] = tested on: Staphylococcus epidermidis 3519; conditions: organism code HH; BHI agar, 35-37° C., 20 to 24 hours; unit assumed
Method in brief: as §1

[20] = tested on: Streptococcus bovis A-5169; conditions: organism code JJ; BHI agar, 35-37° C., 20 to 24 hours; unit assumed
Method in brief: as §1

[21] = tested on: Streptococcus pyogenes PIU 2548; conditions: organism code NN; BHI agar, 35-37° C., 20 to 24 hours; unit assumed
Method in brief: as §1

[22] = tested on: Escherichia coli DC-2; conditions: organism code SS; BHI agar, 35-37° C., 20 to 24 hours; unit assumed
Method in brief: as §1

[23] = tested on: Enterococcus faecium ATCC 8043; conditions: organism code II; BHI agar, 35-37° C., 20 to 24 hours; unit assumed
Method in brief: as §1

[24] = tested on: Staphylococcus aureus CMX 642A; conditions: organism code DD; BHI agar, 35-37° C., 20 to 24 hours; unit assumed
Method in brief: as §1

[25] = tested on: Streptococcus Pneumonia 5649; conditions: organism code ZZA; BHI agar, 35-37° C., 20 to 24 hours; unit assumed
Method in brief: as §1

[26] = tested on: Candida albicans CCH 442; conditions: organism code TT; BHI agar, 35-37° C., 20 to 24 hours; unit assumed
Method in brief: as §1

[27] = tested on: Staphylococcus aureus A-5278; conditions: organism code CC; BHI agar, 35-37° C., 20 to 24 hours; unit assumed
Method in brief: as §1

Row | Compound | MIC [1] [µg/mL] | MIC [2] [µg/mL] | MIC [3] [µg/mL] | MIC [4] [µg/mL] | MIC [5] [µg/mL] | MIC [6] [µg/mL] | MIC [7] [µg/mL] | MIC [8] [µg/mL] | MIC [9] [µg/mL] | MIC [10] [µg/mL] | MIC [11] [µg/mL] | MIC [12] [µg/mL] | MIC [13] [µg/mL] | MIC [14] [µg/mL] | MIC [15] [µg/mL] | MIC [16] [µg/mL] | MIC [17] [µg/mL] | MIC [18] [µg/mL] | MIC [19] [µg/mL] | MIC [20] [µg/mL] | other results
1 | CC[C@H]1OC(=O)[C@H](C)C(=O)[C@H](C)[C@@H](O[C@@H]2O[C@H](C)C[C@H](N(C)C)[C@H]2O)[C@](C)(OC/C=C/c2cnc(-c3cncnc3)s2)C[C@@H](C)C(=O)[C@H](C)[C@H]2NC(=O)O[C@@]21C [Example 59] | ≤ 0.004 | 0.01 (≈ 0.0125 µM) | ≤ 0.004 | 0.1 (≈ 0.125 µM) | 0.02 (≈ 0.025 µM) | 0.2 (≈ 0.25 µM) | 3.1 (≈ 3.88 µM) | 6.2 (≈ 7.75 µM) | 50 (≈ 62.5 µM) | 0.1 (≈ 0.125 µM) | 0.01 (≈ 0.0125 µM) | 0.1 (≈ 0.125 µM) | 4 (≈ 5 µM) | > 100 | 0.01 (≈ 0.0125 µM) | 0.1 (≈ 0.125 µM) | 4 (≈ 5 µM) | 0.1 (≈ 0.125 µM) | 0.1 (≈ 0.125 µM) | ≤ 0.005 | MIC [21]: 0.2 µg/mL (≈ 0.25 µM); MIC [22]: 50 µg/mL (≈ 62.5 µM); MIC [23]: 0.02 µg/mL (≈ 0.025 µM); MIC [24]: 0.1 µg/mL (≈ 0.125 µM); MIC [25]: 0.5 µg/mL (≈ 0.625 µM); MIC [26]: > 100 µg/mL; MIC [27]: > 100 µg/mL
2 | CCOC(=O)c1cncc(-c2ccc(C#CCO[C@]3(C)C[C@@H](C)C(=O)[C@H](C)[C@H]4NC(=O)O[C@]4(C)[C@@H](CC)OC(=O)[C@H](C)C(=O)[C@H](C)[C@H]3O[C@@H]3O[C@H](C)C[C@H](N(C)C)[C@H]3O)s2)c1 [Example 10] | 0.03 (≈ 0.0346 µM) | 0.01 (≈ 0.0115 µM) | 0.03 (≈ 0.0346 µM) | 0.05 (≈ 0.0576 µM) | 0.1 (≈ 0.115 µM) | 0.78 (≈ 0.899 µM) | 1.56 (≈ 1.8 µM) | 50 (≈ 57.6 µM) | > 100 | 0.2 (≈ 0.23 µM) | 0.01 (≈ 0.0115 µM) | 0.1 (≈ 0.115 µM) | 4 (≈ 4.61 µM) | > 100 | 0.01 (≈ 0.0115 µM) | 0.1 (≈ 0.115 µM) | 8 (≈ 9.22 µM) | 0.2 (≈ 0.23 µM) | 0.2 (≈ 0.23 µM) | 0.005 (≈ 0.00576 µM) | MIC [21]: 0.2 µg/mL (≈ 0.23 µM); MIC [22]: > 100 µg/mL; MIC [23]: 0.1 µg/mL (≈ 0.115 µM); MIC [24]: 0.1 µg/mL (≈ 0.115 µM); MIC [25]: 0.5 µg/mL (≈ 0.576 µM); MIC [26]: > 100 µg/mL; MIC [27]: > 100 µg/mL
3 | CC[C@H]1OC(=O)[C@H](C)C(=O)[C@H](C)[C@@H](O[C@@H]2O[C@H](C)C[C@H](N(C)C)[C@H]2O)[C@](C)(OC/C=C/c2ccc(-c3ccsc3)s2)C[C@@H](C)C(=O)[C@H](C)[C@H]2NC(=O)O[C@@]21C [Example 76] | ≤ 0.004 | 0.01 (≈ 0.0125 µM) | ≤ 0.004 | 0.1 (≈ 0.125 µM) | 0.1 (≈ 0.125 µM) | 0.2 (≈ 0.249 µM) | 0.78 (≈ 0.971 µM) | 3.1 (≈ 3.86 µM) | 100 (≈ 125 µM) | 0.2 (≈ 0.249 µM) | 0.05 (≈ 0.0623 µM) | 0.1 (≈ 0.125 µM) | 16 (≈ 19.9 µM) | 100 (≈ 125 µM) | 0.01 (≈ 0.0125 µM) | 0.1 (≈ 0.125 µM) | 8 (≈ 9.96 µM) | 0.05 (≈ 0.0623 µM) | 0.1 (≈ 0.125 µM) | ≤ 0.005 | MIC [21]: 0.1 µg/mL (≈ 0.125 µM); MIC [22]: 100 µg/mL (≈ 125 µM); MIC [23]: 0.02 µg/mL (≈ 0.0249 µM); MIC [24]: 0.1 µg/mL (≈ 0.125 µM); MIC [25]: 0.125 µg/mL (≈ 0.156 µM); MIC [26]: > 100 µg/mL; MIC [27]: 100 µg/mL (≈ 125 µM)
4 | CC[C@H]1OC(=O)[C@H](C)C(=O)[C@H](C)[C@@H](O[C@@H]2O[C@H](C)C[C@H](N(C)C)[C@H]2O)[C@](C)(OC/C=C/c2ccc(-c3nccs3)s2)C[C@@H](C)C(=O)[C@H](C)[C@H]2NC(=O)O[C@@]21C [Example 63] | 0.008 (≈ 0.00995 µM) | 0.05 (≈ 0.0622 µM) | 0.008 (≈ 0.00995 µM) | 0.1 (≈ 0.124 µM) | 0.05 (≈ 0.0622 µM) | 0.1 (≈ 0.124 µM) | 0.39 (≈ 0.485 µM) | 6.2 (≈ 7.71 µM) | 100 (≈ 124 µM) | 0.1 (≈ 0.124 µM) | 0.05 (≈ 0.0622 µM) | 0.1 (≈ 0.124 µM) | 8 (≈ 9.95 µM) | > 100 | 0.05 (≈ 0.0622 µM) | 0.1 (≈ 0.124 µM) | 4 (≈ 4.97 µM) | 0.1 (≈ 0.124 µM) | 0.2 (≈ 0.249 µM) | 0.05 (≈ 0.0622 µM) | MIC [21]: 0.2 µg/mL (≈ 0.249 µM); MIC [22]: 100 µg/mL (≈ 124 µM); MIC [23]: 0.05 µg/mL (≈ 0.0622 µM); MIC [24]: 0.1 µg/mL (≈ 0.124 µM); MIC [25]: 0.25 µg/mL (≈ 0.311 µM); MIC [26]: > 100 µg/mL; MIC [27]: > 100 µg/mL
5 | CC[C@H]1OC(=O)[C@H](C)C(=O)[C@H](C)[C@@H](O[C@@H]2O[C@H](C)C[C@H](N(C)C)[C@H]2O)[C@](C)(OCC#Cc2ccc(-c3cncc(C#N)c3)s2)C[C@@H](C)C(=O)[C@H](C)[C@H]2NC(=O)O[C@@]21C [Example 8] | ≤ 0.004 | ≤ 0.005 | ≤ 0.004 | 0.02 (≈ 0.0244 µM) | 0.01 (≈ 0.0122 µM) | 0.2 (≈ 0.244 µM) | 0.78 (≈ 0.95 µM) | 0.2 (≈ 0.244 µM) | 50 (≈ 60.9 µM) | 0.05 (≈ 0.0609 µM) | ≤ 0.005 | 0.05 (≈ 0.0609 µM) | 0.25 (≈ 0.305 µM) | > 100 | 0.01 (≈ 0.0122 µM) | 0.05 (≈ 0.0609 µM) | 4 (≈ 4.87 µM) | 0.02 (≈ 0.0244 µM) | 0.05 (≈ 0.0609 µM) | ≤ 0.005 | MIC [21]: 0.1 µg/mL (≈ 0.122 µM); MIC [22]: > 100 µg/mL; MIC [23]: 0.02 µg/mL (≈ 0.0244 µM); MIC [24]: 0.05 µg/mL (≈ 0.0609 µM); MIC [25]: ≤ 0.004 µg/mL; MIC [26]: > 100 µg/mL; MIC [27]: > 100 µg/mL
